Measured values reported in patent US10196401B2, “Spiro-lactam NMDA receptor modulators and uses thereof” (Aptinyx Inc., priority 2016, dated 2019).

Key:
[1] = test system: rats; experiment: Positive emotional learning (PEL) test, rat 50-kHz ultrasonic vocalizations (USVs); type: in vivo
Protocol: Experiments were conducted as described in Burgdorf et al., “The effect of selective breeding for differential rates of 50-kHz ultrasonic vocalizations on emotional behavior in rats,” Devel. Psychobiol., 51:34-46 (2009). Rat 50-kHz ultrasonic vocalization (hedonic USVs) is a validated model for the study of positive affective state and is best elicited by rough-and-tumble play.
The PEL assay measures the acquisition of positive (hedonic) 50-kHz ultrasonic vocalizations (USVs) to a social stimulus, heterospecific rough and tumble play stimulation. Heterospecific rough-and-tumble play stimulation was administered by the experimenter's right hand. […] High frequency ultrasonic vocalizations (USVs) were recorded and analyzed by sonogram with Avasoft SASlab Pro (Germany) as previously described by Burgdorf et al., “Positive emotional learning is regulated in the medial prefrontal cortex by GluN2B-containing NMDA receptors,” Neuroscience, 192:515-523 (2011). Frequency modulated 50-kHz USVs that occurred during each of the no-stimulation periods were quantified to measure PEL. […] Positive emotional learning was measured during the conditioned stimulus (CS) trials preceding the tickle unconditioned stimulus (UCS) trials. […] Running speed for animals to self administer tickling at the end of the 3 min session was also measured. […]

[2] = Microsomal stability, human; type: in vitro ADME
Protocol: Microsomal and plasma stability of Compound A was investigated. The following table indicates the percent of Compound A remaining after 60 minutes.
Microsomal and plasma stability of Compound B was investigated. The following table indicates the percent of Compound B remaining after 60 minutes.

[3] = Plasma protein binding, human; type: in vitro ADME; settings: read-out: plasma protein binding (% bound) (converted)
Protocol: Unbound drug concentration in the brain was also investigated, and plasma protein binding assays were conducted. The following table (% bound) indicates results for Compound A.
Unbound drug concentration in the brain was also investigated, and plasma protein binding assays were conducted. The following table (% bound) indicates results for Compound B.

[4] = test system: Sprague Dawley rats; experiment: Blast-induced traumatic brain injury/cognitive deficits measured by PEL; type: in vivo, rat; settings: 10 mg/kg PO 1 h post-blast; PEL 48 hours post-blast
Text: Single blast-induced traumatic brain injury/cognitive deficits were induced, modified for use in rats according to the protocol of Goldstein et al., “Chronic traumatic encephalopathy in blast-exposed military veterans and a blast neurotrauma mouse model,” Science Translational Medicine, Vol. 4, Issue 134, pp. 134ra60, 2012. Male 2-3 month old Sprague Dawley rats were used. Rats were housed in Lucite cages with aspen wood chip bedding, maintained on a 12:12 light:dark cycle (lights on at 5 AM), and given ad libitum access to Purina lab chow (USA) and tap water throughout the study. Rats were first anesthetized using 3.5-4% isoflurane, then the ears were protected with 1.5×1.5 mm foam plugs (Pura-Fit®, Moldex-Metric Inc., Culver City, Calif.), and the rat was placed into a head access rodent thoracic restrainer (Stoelting, USA) to protect the body while allowing the head to move freely. […]
PEL (Positive emotional learning) was conducted 48 hours post-blast. […] High frequency ultrasonic vocalizations (USVs) were recorded and analyzed by sonogram with Avasoft SASlab Pro (Germany) as previously described by Burgdorf et al., “Positive emotional learning is regulated in the medial prefrontal cortex by GluN2B-containing NMDA receptors,” Neuroscience, 192:515-523, 2011. Frequency raodulated 50-kH-z USVs that occurred during each the no-stimulation periods were quantified to measure PEL. […]

[5] = test system: SD rats; experiment: Novelty-induced hypophagia (NIH) test; type: in vivo, rat; settings: 1 h before a single 10-min test session
Text: This Example relates to the assessment of the anxiolytic effect of treatment in the stress-induced anxiety model, novelty induced hypophagia. This assay is also sensitive to the rapid acting antidepressants ketamine and GLYX-13 (Li et al., “mTOR-dependent synapse formation underlies the rapid antidepressant effects of NMDA antagonists,” Science 329:959-964, 2010; and Burgdorf et al., 2013). See also Bodnoff et al., “A comparison of the effects of diazepam versus several typical and atypical anti-depressant drugs in an animal model of anxiety,” Psychopharmacology, 97:277-279, 1989.
Testing was conducted as described by (Burgdorf et al., 2013). […] Animals were food deprived overnight before testing, and lab chow was placed in the center chamber of an open field (40×40×20 cm) for 10 min under dim red lighting. Between testing each animal, feces and urine were removed from the apparatus. After NIHI testing, the latency to eat in the animal's home cage was determined as a control to ensure the effect on eating is specific to the novel environment. Animals were videotaped, and latency (sec) for the animal to take the first bite of food was manually scored offline.
A single point per dose group that was 2 or more standard deviations from the mean was considered an outlier and was excluded from the data analysis. […]

[6] = target: NMDAR2A (Homo sapiens, UniProt Q12879); experiment: Potentiation of [3H]MK-801 binding, NMDAR2A; set-up: species or system rat; settings: NMDAR2A binding profile, wild-type
NMDAR2A, sequence (Q12879 23-1464, species assumed, other chains not shown): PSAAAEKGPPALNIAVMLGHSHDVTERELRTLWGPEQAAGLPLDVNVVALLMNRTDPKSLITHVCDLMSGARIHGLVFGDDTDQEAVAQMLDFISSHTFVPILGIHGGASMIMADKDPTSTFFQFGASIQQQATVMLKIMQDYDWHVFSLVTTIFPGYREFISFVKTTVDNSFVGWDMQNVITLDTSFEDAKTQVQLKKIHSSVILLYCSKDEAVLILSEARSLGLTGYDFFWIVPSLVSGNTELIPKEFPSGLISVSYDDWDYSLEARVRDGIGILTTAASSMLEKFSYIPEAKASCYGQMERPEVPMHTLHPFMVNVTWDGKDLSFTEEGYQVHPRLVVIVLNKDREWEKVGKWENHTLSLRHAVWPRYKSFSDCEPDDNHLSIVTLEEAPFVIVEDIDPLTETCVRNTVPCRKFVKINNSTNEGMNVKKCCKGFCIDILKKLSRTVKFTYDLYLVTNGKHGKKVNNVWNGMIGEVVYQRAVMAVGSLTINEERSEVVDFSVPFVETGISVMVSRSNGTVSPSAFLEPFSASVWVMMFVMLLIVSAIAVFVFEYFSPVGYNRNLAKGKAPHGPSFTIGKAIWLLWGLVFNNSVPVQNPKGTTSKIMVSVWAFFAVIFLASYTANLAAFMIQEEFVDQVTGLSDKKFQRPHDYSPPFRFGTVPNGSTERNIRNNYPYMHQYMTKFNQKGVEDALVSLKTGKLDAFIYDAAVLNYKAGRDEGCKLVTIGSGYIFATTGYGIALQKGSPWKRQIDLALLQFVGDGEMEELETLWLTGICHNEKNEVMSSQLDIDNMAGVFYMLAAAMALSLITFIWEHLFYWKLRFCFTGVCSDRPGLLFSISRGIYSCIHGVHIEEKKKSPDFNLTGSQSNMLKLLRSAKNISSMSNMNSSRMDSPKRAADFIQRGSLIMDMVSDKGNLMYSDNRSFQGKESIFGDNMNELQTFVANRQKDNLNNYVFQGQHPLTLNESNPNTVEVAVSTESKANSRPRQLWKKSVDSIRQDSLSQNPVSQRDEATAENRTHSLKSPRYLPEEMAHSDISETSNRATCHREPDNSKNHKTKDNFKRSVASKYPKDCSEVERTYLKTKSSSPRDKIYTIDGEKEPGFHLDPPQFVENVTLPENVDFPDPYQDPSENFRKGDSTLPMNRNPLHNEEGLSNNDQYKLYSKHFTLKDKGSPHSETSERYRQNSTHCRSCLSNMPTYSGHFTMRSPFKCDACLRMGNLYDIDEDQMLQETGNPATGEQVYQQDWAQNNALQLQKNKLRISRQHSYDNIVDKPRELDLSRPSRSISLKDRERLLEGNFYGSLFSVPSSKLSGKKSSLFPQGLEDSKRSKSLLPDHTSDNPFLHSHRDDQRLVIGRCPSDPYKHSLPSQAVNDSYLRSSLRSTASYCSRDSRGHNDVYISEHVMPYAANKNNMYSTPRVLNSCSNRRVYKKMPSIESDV

Microsomal stability, percent remaining after 60 minutes [2]	fraction unbound [3]	EC50 [6]	Structure (SMILES)	positive emotional learning as measured by rat USVs ([1]; administered one hour prior to PEL testing)	blast-induced cognitive deficits as measured by PEL [4]	latency to eat in the NIH test (anxiolytic effect) ([5]; 10-1000 μg/kg PO)	positive emotional learning in the rat USVs test ([1]; rat, in vivo)	latency to eat in the NIH test (anxiolytic effect) ([5]; 0.0001-1 μg/kg PO)
86%	0.741	0.00457 nM	CC(C)CN1CCC[C@]12CN([C@H](C(N)=O)[C@@H](C)O)C2=O [Compound A, (2S,3R)-3-hydroxy-2-((R)-5-isobutyl-1-oxo-2,5-diazaspiro[3.4]octan-2-yl)butanamide]	increases positive emotional learning	reversed blast-induced cognitive deficits	produces an anxiolytic effect		
87%	0.712	0.977 nM	CC(C)CN1CCC[C@@]12CN([C@H](C(N)=O)[C@@H](C)O)C2=O [Compound B, (2S,3R)-3-hydroxy-2-((S)-5-isobutyl-1-oxo-2,5-diazaspiro[3.4]octan-2-yl)butanamide]		reversed blast-induced cognitive deficits		increases positive emotional learning	produces an anxiolytic effect
